From PubChem BioAssay (NCI)
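Here, GI50 denotes the concentration required for 50% inhibition of growth. Definition used: TGI = concentration required for complete inhibition of growth.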

Assays:
Assay in all cases: NCI tumour cell line growth inhibition, 384-well format
[1] = system: 786-0 renal
[2] = system: A498 renal
[3] = system: A549 NSCLC
[4] = system: ACHN renal
[5] = system: BT-549 breast
[6] = system: CAKI-1 renal
[7] = system: CCRF-CEM leukemia
[8] = system: COLO 205 colon
[9] = system: DU-145 prostate
[10] = system: EKVX NSCLC
[11] = system: HCC-2998 colon
[12] = system: HCT-116 colon
[13] = system: HCT-15 colon
[14] = system: HL-60(TB) leukemia
[15] = system: HOP-62 NSCLC
[16] = system: HOP-92 NSCLC
[17] = system: HS 578T breast
[18] = system: HT29 colon
[19] = system: IGROV1 ovarian
[20] = system: KM12 colon
[21] = system: LOX IMVI melanoma
[22] = system: M14 melanoma
[23] = system: MALME-3M melanoma
[24] = system: MCF7 breast
[25] = system: MDA-MB-231 breast
[26] = system: MDA-MB-435 melanoma
[27] = system: MDA-MB-468 breast
[28] = system: MOLT-4 leukemia
[29] = system: NCI-H226 lung
[30] = system: NCI-H23 lung
[31] = system: NCI-H322M lung
[32] = system: NCI-H460 NSCLC
[33] = system: NCI-H522 lung
[34] = system: NCI/ADR-RES ovarian
[35] = system: OVCAR-3 ovarian
[36] = system: OVCAR-4 ovarian
[37] = system: OVCAR-5 ovarian
[38] = system: OVCAR-8 ovarian
[39] = system: PC-3 prostate
[40] = system: RPMI-8226 leukemia
[41] = system: RXF 393 renal
[42] = system: SF-268 CNS
[43] = system: SF-295 CNS
[44] = system: SF-539 CNS
[45] = system: SK-MEL-28 melanoma
[46] = system: SK-MEL-5 melanoma
[47] = system: SK-OV-3 ovarian
[48] = system: SN12C renal
[49] = system: SNB-19 CNS
[50] = system: SNB-75 CNS
[51] = system: SR leukemia
[52] = system: SW-620 colon
[53] = system: T-47D breast
[54] = system: TK-10 renal
[55] = system: U251 glioblastoma
[56] = system: UACC-257 melanoma
[57] = system: UACC-62 melanoma
[58] = system: UO-31 renal

## CN1CCN(c2ccc(C(=O)Nc3n[nH]c4ccc(Cc5cc(F)cc(F)c5)cc34)c(NC3CCOCC3)c2)CC1
[1]
  GI50: 1.51 µM
  TGI: 2.85 µM
[2]
  GI50: 1.71 µM
  TGI: 3.09 µM
[3]
  GI50: 1.41 µM
  TGI: 2.73 µM
[4]
  GI50: 1.54 µM
  TGI: 2.88 µM
[5]
  GI50: 1.73 µM
  TGI: 3.12 µM
[6]
  GI50: 1.63 µM
  TGI: 3 µM
[7]
  GI50: 1.87 µM
  TGI: 3.3 µM
[8]
  GI50: 1.72 µM
  TGI: 3.12 µM
[9]
  GI50: 1.55 µM
  TGI: 2.89 µM
[10]
  GI50: 1.2 µM
  TGI: 2.46 µM
[11]
  GI50: 1.03 µM
  TGI: 2.22 µM
[12]
  GI50: 1.5 µM
  TGI: 2.85 µM
[13]
  GI50: 1.16 µM
  TGI: 2.41 µM
[14]
  GI50: 1.83 µM
  TGI: 3.24 µM
[15]
  GI50: 1.43 µM
  TGI: 2.75 µM
[16]
  GI50: 1.14 µM
  TGI: 2.36 µM
[17]
  GI50: 1.53 µM
  TGI: 2.86 µM
[18]
  GI50: 1.3 µM
  TGI: 2.61 µM
[19]
  GI50: 1.01 µM
  TGI: 2.21 µM
[20]
  TGI: 1.37 µM
[21]
  GI50: 1.53 µM
  TGI: 2.87 µM
[22]
  GI50: 1.69 µM
  TGI: 3.06 µM
[23]
  GI50: 1.27 µM
  TGI: 2.53 µM
[24]
  GI50: 1.14 µM
  TGI: 2.37 µM
[25]
  GI50: 1.23 µM
  TGI: 2.48 µM
[26]
  GI50: 1.69 µM
  TGI: 3.07 µM
[27]
  GI50: 1.12 µM
  TGI: 2.33 µM
[28]
  GI50: 1.36 µM
  TGI: 2.65 µM
[29]
  GI50: 0.727 µM
  TGI: 2.07 µM
[30]
  GI50: 1.23 µM
  TGI: 2.48 µM
[31]
  GI50: 1.47 µM
  TGI: 2.79 µM
[32]
  GI50: 1.57 µM
  TGI: 2.95 µM
[33]
  GI50: 1.4 µM
  TGI: 2.71 µM
[34]
  GI50: 1.55 µM
  TGI: 2.9 µM
[35]
  GI50: 1.05 µM
  TGI: 2.29 µM
[36]
  GI50: 1.02 µM
  TGI: 2.23 µM
[37]
  GI50: 1.48 µM
  TGI: 2.84 µM
[38]
  GI50: 1.66 µM
  TGI: 3.04 µM
[39]
  GI50: 1.23 µM
  TGI: 2.48 µM
[40]
  GI50: 1.35 µM
  TGI: 2.65 µM
[41]
  GI50: 0.825 µM
  TGI: 2.2 µM
[42]
  GI50: 1.6 µM
  TGI: 2.97 µM
[43]
  GI50: 1.68 µM
  TGI: 3.05 µM
[44]
  GI50: 1.68 µM
  TGI: 3.06 µM
[45]
  GI50: 1.67 µM
  TGI: 3.04 µM
[46]
  GI50: 1.59 µM
  TGI: 2.94 µM
[47]
  GI50: 1.43 µM
  TGI: 2.76 µM
[48]
  GI50: 1.21 µM
  TGI: 2.48 µM
[49]
  GI50: 1.7 µM
  TGI: 3.11 µM
[50]
  GI50: 1.37 µM
  TGI: 2.67 µM
[51]
  GI50: 0.0243 µM
  TGI: 0.0554 µM
[52]
  GI50: 1.49 µM
  TGI: 2.84 µM
[53]
  GI50: 1.35 µM
  TGI: 2.65 µM
[54]
  GI50: 1.57 µM
  TGI: 2.93 µM
[55]
  GI50: 1.68 µM
  TGI: 3.06 µM
[56]
  GI50: 1.55 µM
  TGI: 2.9 µM
[57]
  GI50: 1.6 µM
  TGI: 2.96 µM
[58]
  GI50: 1.59 µM
  TGI: 2.95 µM
